Test results as given in patent US12668599B2, “Heterobifunctional compounds and methods of treating disease” (Halda Therapeutics OpCo, Inc., priority 2023, dated 2026).

What was measured:
VCaP cells = assay: Cellular growth inhibition assay for VCaP cells (CellTiter-Glo 2.0, 72 hours); format: cell-based, human
VCaP cell tumors = assay: Castrate VCaP tumor xenograft study, tumor growth; format: in vivo; details: castrated CB17.SCID mice bearing VCaP tumors, oral gavage; same mg/kg dose and dosing frequency for Compound II-5 and Compound A, FIG. 8
Method: Compound II-5 was evaluated for in vivo performance when administered to CB17.SCID mice bearing VCaP cell tumors.
5M VCaP cells were subcutaneously implanted into CB17.SCID mice in 50% Matrigel (Corning). Mice were castrated under anesthesia once tumor volumes reached 100 mm^3. Tumors were then allowed to reach an average of approximately 150 mm^3 before randomization into efficacy arms. Tumors were measured twice weekly for Tumor Growth Inhibition (TGI) calculation. For PK/PD analysis, tumors were allowed to reach an average of 400 mm^3, before dosing the mice with test compound by oral gavage (n=5) for seven days. Mice were sacrificed 24 hours following the final dose, and tumors were harvested for downstream analysis. Plasma samples were collected from all dosed mice 2 hours following the final dose to determine test compound exposure by LC-MS/MS. Test compounds used in the experiment were (i) Compound II-5 and (ii) a commercially available nonsteroidal antiandrogen medication that has been approved by the United States Food and Drug Administration for treatment of prostate cancer (hereinafter “Compound A”).

[1] = Stability analysis of Crystal Form A and Crystal Form B in solvent suspensions (XRPD); format: physicochemical
Method: The obtained suspensions were stirred at 25° C. and 50° C. for 1 week, respectively. Solid parts (wet cakes) were isolated by centrifugation filtration at […] temperature and investigated by XRPD.

Compound: COc1cc(O[C@H]2C(C)(C)[C@H](NC(=O)c3cnc(N4CCC5(CC4)CC(Oc4ccc(C6=N[C@@H](Cc7ncco7)c7nnc(C)n7-c7sc(C)c(C)c76)cc4)C5)nc3)C2(C)C)ccc1C#N [II-5, N-[(1r,3r)-3-(4-cyano-3-methoxy-phenoxy)-2,2,4,4-tetramethyl-cyclobutyl]-2-[2-[4-[(9S)-4,5,13-trimethyl-9-(oxazol-2-ylmethyl)-3-thia-1,8,11,12-tetrazatricyclo[8.3.0.0^2,6]trideca-2 (6),4,7,10,12-pentaen-7-yl]phenoxy]-7-azaspiro[3.5]nonan-7-yl]pyrimidine-5-carboxamide]
- Ratio of GI50's (VCaP cells; GI50 of the top compound in the pair divided by GI50 of the lower compound): 1
- GI50 (VCaP cells; Homo sapiens, VCaP, 72 h, CellTiter-Glo 2.0): < 500 nM
- tumor growth inhibition (tumor volume) (VCaP cell tumors): more effective in reducing tumor growth in this experiment than Compound A
- XRPD form after suspension ([1]; about 3 mg Crystal Form A + 3 mg Crystal Form B in saturated Acetone solution, 25° C. for 1 week): Crystal Form A
- XRPD form after suspension ([1]; about 3 mg Crystal Form A + 3 mg Crystal Form B in saturated Acetone solution, 50° C. for 1 week): Crystal Form A
- XRPD form after suspension ([1]; about 3 mg Crystal Form A + 3 mg Crystal Form B in saturated Acetonitrile solution, 25° C. for 1 week): Crystal Form A
- XRPD form after suspension ([1]; about 3 mg Crystal Form A + 3 mg Crystal Form B in saturated Acetonitrile solution, 50° C. for 1 week): Crystal Form A
- XRPD form after suspension ([1]; about 3 mg Crystal Form A + 3 mg Crystal Form B in saturated EtOH solution, 25° C. for 1 week): Crystal Form A
- XRPD form after suspension ([1]; about 3 mg Crystal Form A + 3 mg Crystal Form B in saturated EtOH solution, 50° C. for 1 week): Crystal Form A
- XRPD form after suspension ([1]; about 3 mg Crystal Form A + 3 mg Crystal Form B in saturated THF/Heptane (1/1, v/v) solution, 25° C. for 1 week): Crystal Form A
- XRPD form after suspension ([1]; about 3 mg Crystal Form A + 3 mg Crystal Form B in saturated THF/Heptane (1/1, v/v) solution, 50° C. for 1 week): Crystal Form A
